Measured values from ChEMBL document CHEMBL3044738, “Synthesis of analogues of antihyperglycemic lead karanjin” (2011).

Experiments:
Rattus norvegicus [1] = experiment: Antihyperglycemic activity in albino Rattus norvegicus Sprague-Dawley (rat) streptozotocin-induced diabetic model assessed as effect on AUC of blood glucose level at 100 mg/kg, po after 24 hr; type: functional
Rattus norvegicus [2] = experiment: Antihyperglycemic activity in albino Rattus norvegicus Sprague-Dawley (rat) streptozotocin-induced diabetic model assessed as effect on AUC of blood glucose level at 100 mg/kg, po after 5 hr; type: functional

| Compound | Activity (Rattus norvegicus [1]) [%] | Activity (Rattus norvegicus [2]) [%] |
| --- | --- | --- |
| CC(=O)OC[C@H]1O[C@@H](Oc2c(-c3ccccc3)oc3c(ccc4occc43)c2=O)[C@H](OC(C)=O)[C@@H](OC(C)=O)[C@@H]1OC(C)=O [3-OTETRAACETYLGLUCOPYRANOSYLKARANJONOL] | 0.5 | 9.7 |
| O=c1c(O)c(-c2ccccc2)oc2c3c(ccc12)OCC3 [2',3'-DIHYDROKARANJONOL] | 5.3 | 7 |
| O=c1c(O)c(-c2ccccc2)oc2c1ccc1occc12 [KARANJONOL] | -39 | -37.2 |
| COc1c(-c2ccccc2)oc2c3c(ccc2c1=O)OCC3 [2',3'-DIHYDROKARANJIN] | 9.8 | 6.2 |
| CC(C)Oc1c(-c2ccccc2)oc2c(ccc3occc32)c1=O [3-O-ISOPROPYLKARANJONOL] | -15.4 | -26.9 |
| O=C(COc1c(-c2ccccc2)oc2c(ccc3occc32)c1=O)c1ccccc1 [3-O-(2-OXO-2-PHENYL-ETHYL)-KARANJONOL] | 22.9 | 15.4 |
| CCN(CC)CC(O)COc1c(-c2ccccc2)oc2c(ccc3occc32)c1=O (stereo not given) [3-(3-DIETHYLAMINO-2-HYDROXY-PROPYL)-KARANJONOL] | -37 | -4.8 |
| C=CCOc1c(-c2ccccc2)oc2c(ccc3occc32)c1=O [3-O-ALLYLKARANJONOL] | -16.6 | -33 |
| COc1c(-c2ccccc2)oc2c(ccc3occc32)c1=O [KARANJIN] | -42.6 | -30.8 |
| CN(C)C(=N)NC(=N)N [METFORMIN] | 25 | -26.7 |
